The values below are quoted from earlier work in publication PMC11491004, “CHF6523 data suggest that the phosphoinositide 3-kinase delta isoform is not a suitable target for the management of COPD” (Respiratory Research, 2024).

The test system of data set [1] is airway inflammation. On the set-up: method as in ref 12 = [12]; 12. Blomqvist S Andreasson T Arlbrandt S Bold P Bjorhall K Brülls M In vivo dual Pi3kγδ inhibition in a rat model of pulmonary inflammation - evidence of local therapeutic activity Am J Respir Crit Ca. The settings on record: cited from earlier work.
The test system of data set [2] is sputum IL-5, IL-13, IL-6 or IL-8. On the set-up: method as in PMID 30217958. Conditions: patients with asthma; cited from earlier work.
Data set [3] deals with T1, PI3Kδ (Homo sapiens, UniProt O00329). On the set-up: from tissue; host or cells: induced sputum of COPD patients (in vivo dosing by inhalation); method as in PMID 30886125. The settings on record: healthy smokers; cited from earlier work.
T1 sequence (O00329 whole entry): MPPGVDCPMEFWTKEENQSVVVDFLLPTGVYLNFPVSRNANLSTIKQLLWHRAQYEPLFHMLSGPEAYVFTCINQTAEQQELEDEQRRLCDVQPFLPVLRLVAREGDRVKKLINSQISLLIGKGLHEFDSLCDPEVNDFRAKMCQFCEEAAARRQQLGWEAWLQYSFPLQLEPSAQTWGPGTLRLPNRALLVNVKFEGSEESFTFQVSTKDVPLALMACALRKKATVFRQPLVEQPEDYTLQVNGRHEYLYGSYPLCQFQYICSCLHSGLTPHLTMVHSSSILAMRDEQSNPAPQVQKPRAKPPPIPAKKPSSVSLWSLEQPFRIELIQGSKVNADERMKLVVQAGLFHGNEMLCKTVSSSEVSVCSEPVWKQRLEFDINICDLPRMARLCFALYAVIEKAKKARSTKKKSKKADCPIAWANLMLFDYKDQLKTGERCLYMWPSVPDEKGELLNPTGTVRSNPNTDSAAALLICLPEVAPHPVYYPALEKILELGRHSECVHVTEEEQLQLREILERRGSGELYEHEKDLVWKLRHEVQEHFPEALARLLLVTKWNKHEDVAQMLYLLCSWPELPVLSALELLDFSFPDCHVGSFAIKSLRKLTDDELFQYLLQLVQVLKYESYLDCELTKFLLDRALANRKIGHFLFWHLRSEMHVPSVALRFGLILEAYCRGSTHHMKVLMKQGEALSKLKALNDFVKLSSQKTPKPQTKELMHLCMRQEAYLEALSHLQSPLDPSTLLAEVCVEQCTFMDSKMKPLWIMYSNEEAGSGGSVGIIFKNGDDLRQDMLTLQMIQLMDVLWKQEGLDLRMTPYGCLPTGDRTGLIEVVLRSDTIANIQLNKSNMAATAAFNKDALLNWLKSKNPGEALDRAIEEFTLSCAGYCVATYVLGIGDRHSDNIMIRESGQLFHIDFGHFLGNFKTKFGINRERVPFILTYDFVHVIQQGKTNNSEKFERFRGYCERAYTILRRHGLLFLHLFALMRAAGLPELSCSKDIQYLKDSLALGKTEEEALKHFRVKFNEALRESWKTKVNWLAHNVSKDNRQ
T1 sequence (P27986 whole entry partner): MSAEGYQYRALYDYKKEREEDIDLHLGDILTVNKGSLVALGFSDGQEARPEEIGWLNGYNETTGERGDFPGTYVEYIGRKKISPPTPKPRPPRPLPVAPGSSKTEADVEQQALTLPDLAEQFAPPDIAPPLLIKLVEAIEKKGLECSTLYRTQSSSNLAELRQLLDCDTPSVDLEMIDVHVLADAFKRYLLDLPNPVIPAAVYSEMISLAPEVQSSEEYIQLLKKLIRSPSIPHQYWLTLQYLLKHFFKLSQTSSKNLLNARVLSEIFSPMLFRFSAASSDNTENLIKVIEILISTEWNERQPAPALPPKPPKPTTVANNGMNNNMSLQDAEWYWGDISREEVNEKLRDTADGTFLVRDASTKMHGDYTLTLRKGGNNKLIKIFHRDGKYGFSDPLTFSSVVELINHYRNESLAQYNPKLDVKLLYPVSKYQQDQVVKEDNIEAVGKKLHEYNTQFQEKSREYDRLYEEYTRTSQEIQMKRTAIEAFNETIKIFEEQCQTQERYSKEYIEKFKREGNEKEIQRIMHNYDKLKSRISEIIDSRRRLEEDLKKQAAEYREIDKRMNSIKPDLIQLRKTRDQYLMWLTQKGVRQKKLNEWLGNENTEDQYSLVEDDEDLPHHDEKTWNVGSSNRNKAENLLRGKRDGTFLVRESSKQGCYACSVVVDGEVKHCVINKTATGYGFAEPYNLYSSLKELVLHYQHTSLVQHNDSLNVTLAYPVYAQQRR
Data set [4] addresses T1, PI3Kδ. Details: method as in ref 14 = [14]; 14. Wilson R Cahn A Montembault M Green J Musani N Begg M Safety, tolerability, pharmacokinetics (PK) and pharmacodynamics (PD) of single (SD) and repeat (RD) inhaled doses of a novel phosphoinositide. Conditions: healthy volunteer study; Day 12; cited from earlier work.
Data set [5] concerns the target T1, PI3Kδ. On the set-up: from tissue; host or cells: induced sputum of COPD patients (in vivo dosing by inhalation); method as in PMID 36841351. The settings on record: activated PI3Kδ syndrome; cited from earlier work.
The test system of data set [6] is sputum IL-6 and IL-8. Details: method as in PMID 28823947. Conditions: patients with COPD; cited from earlier work.
On the set-up of data set [7]: method as in PMID 34113095. The settings on record: cited from earlier work.

For `Cc1nc(Nc2cccc(N3CCCC3=O)n2)sc1-c1cc2c(c(S(C)(=O)=O)c1)C(=O)N([C@@H](C)C1CC1)C2` [AZD8154], in data set [1], the “Efficacy in a rat model of airway inflammation” value is reported as “demonstrated efficacy”.
Consider `CC(C)N1CCN(Cc2cnc(-c3cc(-c4cccc5[nH]ccc45)cc4[nH]ncc34)o2)CC1` [nemiralisib], for which the “Sputum IL-5, IL-13, IL-6 or IL-8 compared to placebo” value in data set [2] was “did not yield statistically significant reductions”. The Target engagement entry in data set [3] was “demonstrated target engagement”. Besides, in data set [4], the “Reduction in PIP3” value is 35.7%. The “Changes in target engagement or downstream inflammatory markers in induced sputum” value in data set [5] is “no meaningful changes”. Further, the “Sputum IL-6 and IL-8 levels compared to placebo” value in data set [6] was “did not significantly reduce”. The “Primary and secondary endpoints” value in data set [7] (Phase IIb, patients with exacerbating COPD) is listed as “neither the primary nor secondary endpoints were met”. Also, the “Most common adverse event” value in data set [7] (experienced post-inhalation and dose-related) was “cough”.
